In patent US6235717A, “Pharmaceutical compounds” (Glaxo Wellcome Inc., priority 1993, dated 2001):
Starred links: 1 amine or outer side, 2 acyl side, 3 side chain; linkers in the order of their positions; H or OH if unused. Non-standard residues stand in square brackets, D forms with d. Residues, ends and D or L forms follow the SMILES beside them. ξ: configuration not given here. *: point of attachment. Phe(4-Br) = N[C@@H](Cc1ccc(Br)cc1)C(=O)O; Phe(4-Cl) = N[C@@H](Cc1ccc(Cl)cc1)C(=O)O; Phe(4-I) = N[C@@H](Cc1ccc(I)cc1)C(=O)O; 1Nal = N[C@@H](Cc1cccc2ccccc12)C(=O)O; Bta = N[C@@H](Cc1csc2ccccc12)C(=O)O; ξW = NC(Cc1c[nH]c2ccccc12)C(=O)O; Suc = O=C(CCC(=O)[*:2])[*:1]; Cbz = O=C(OCc1ccccc1)*; Bn = c1ccc(C*)cc1

biological target: endothelin converting enzyme (ECE) (Sus scrofa, UniProt F1SU04); assay: "ECE" assay with porcine aortic "ECE" prep, fluorogenic substrate Suc-Ile-Ile-Trp-MCA; type: biochemical; settings: pH 7
Sequence (F1SU04 entry or part of it): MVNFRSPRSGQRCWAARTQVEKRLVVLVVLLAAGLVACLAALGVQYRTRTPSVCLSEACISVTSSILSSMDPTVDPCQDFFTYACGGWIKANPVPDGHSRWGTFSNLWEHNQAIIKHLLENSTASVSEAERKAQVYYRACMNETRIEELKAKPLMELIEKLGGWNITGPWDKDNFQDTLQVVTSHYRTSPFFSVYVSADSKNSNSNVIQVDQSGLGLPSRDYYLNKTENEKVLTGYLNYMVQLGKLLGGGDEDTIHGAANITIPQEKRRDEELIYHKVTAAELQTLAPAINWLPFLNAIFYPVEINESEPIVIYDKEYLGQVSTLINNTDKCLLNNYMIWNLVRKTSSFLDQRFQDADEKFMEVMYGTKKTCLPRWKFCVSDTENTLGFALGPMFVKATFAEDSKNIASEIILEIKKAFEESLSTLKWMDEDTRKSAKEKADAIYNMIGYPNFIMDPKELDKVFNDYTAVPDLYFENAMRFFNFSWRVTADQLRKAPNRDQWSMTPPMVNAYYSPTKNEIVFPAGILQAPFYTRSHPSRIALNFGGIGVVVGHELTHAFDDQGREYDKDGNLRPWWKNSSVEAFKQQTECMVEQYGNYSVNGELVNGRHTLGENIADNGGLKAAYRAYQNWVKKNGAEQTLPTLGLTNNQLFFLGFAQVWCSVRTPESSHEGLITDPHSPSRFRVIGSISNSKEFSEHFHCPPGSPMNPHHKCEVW
Experimental: IC50 values were determined as follows:
Porcine Aortic "ECE" Prep
Porcine aortas (22-25) were obtained fresh from a local slaughterhouse and delivered in cold PBS on ice. The aortas were cut open, rinsed with cold PBS and the endothelial cell layer scraped into cold PBS using a scalpel. The endothelial cells were pelleted by centrifugation, rinsed once with cold PBS, and repelleted. The pellet was lysed by addition of 10 volumes of 10 mM Tris-HCl, pH 7.0, containing protease inhibitors and DTS, followed by brief sonication and homogenization. The lysate was centrifuged at 100,000 g for 1 hour and the supernatant applied to a MONOQ FPLC anion exchange column equilibrated in 10 mM Tris-HCl, pH 7.0 (buffer A) which was then developed with an increasing gradient of NaCl in buffer A. The active fractions were aliquoted and stored at -70° C.
The ECE assay was performed in 96-well microplates in a total volume of 200μ/well. The assay cocktail contains 100 mM Tris-HCl, pH 7.0, 20 mM CaCl2, 80 μM substrate (Suc-Ile-Ile-Trp-MCA), enzyme and test compounds. The test compounds were preincubated with the enzyme for 15-20 minutes before initiation of the assay by addition of the substrate. The assay was incubated overnight at 37° C. and the fluorescence intensity caused by the release of AMC was determined using a fluorescence microplate reader (EX360 nm/EM460 nm). IC50 values for compounds were determined by constructing concentration-effect curves for the inhibition of enzyme activity. Concentrations on the linear portion of the inhibition curve were used to determine the IC50 utilizing a Hill plot.

SMILES | IC50
O=C[C@H](Cc1c[nH]c2ccccc12)NC(=O)[C@H](Cc1cccc2ccccc12)NC(=O)[C@H](Cc1ccc(Br)cc1)NC(=O)OCc1ccccc1 [Example 37, N-Benzyloxycarbonyl-S-p-bromophenylalanyl-S-1'naphthylalanyl-1-S-formyl-1-(1H-indol-3-yl-methyl)-methylamide] (Cbz-[Phe(4-Br)]-[1Nal]-Trp-aldehyde) | 7 nM
O=C[C@H](Cc1c[nH]c2ccccc12)NC(=O)[C@H](Cc1cccc2ccccc12)NC(=O)[C@H](Cc1ccc(I)cc1)NC(=O)OCc1ccccc1 [Example 40, N-Benzyloxycarbonyl-S-p-iodophenylalanyl-S-1'naphthylalanyl-1-S-formyl-1-(1H-indol-3-yl-methyl)-methylamide] (Cbz-[Phe(4-I)]-[1Nal]-Trp-aldehyde) | 10 nM

same assay, conditions: porcine aortic endothelial cell ECE prep; 80 μM Suc-Ile-Ile-Trp-MCA; 15-20 min preincubation; overnight at 37° C.; pH 7.0; AMC fluorescence

SMILES | IC50
O=C[C@H](Cc1c[nH]c2ccccc12)NC(=O)[C@H](Cc1ccc(OCc2ccccc2)cc1)NC(=O)[C@H](Cc1ccc(Br)cc1)NC(=O)OCc1ccccc1 [Example 19, N-Benzyloxycarbonyl-S-p-bromophenylalnyl-S-(O-benzyl)tyrosyl-1-S-formyl-1-(1H-indol-3-yl-methyl)-methylamide] (Cbz-[Phe(4-Br)]-Tyr(Bn)-Trp-aldehyde) | 10 nM
CC[C@H](C)[C@H](NC(=O)[C@H](Cc1ccccc1)NC(=O)OCc1ccccc1)C(=O)N[C@H](C=O)[C@@H](C)CC [Example 20, N-Benzyloxycarbonyl-S-phenylalanyl-S-isoleucyl-1-S-formyl-1-(S)-1-methylpropylmethylamide] (Cbz-Phe-Ile-Ile-aldehyde) | 1100 nM
CCC(C)C(C=O)NC(=O)C(NC(=O)C(NC(=O)OCc1ccccc1)C(C)CC)C(C)CC [Example 22, N-Benzyloxycarbonyl-S-isoleucyl-S-isoleucyl-1-S-formyl-1-(S)-1-methylpropyl)-methylamide] (Cbz-Ile-Ile-Ile-aldehyde; configuration not given here) | 4000 nM
CC[C@H](C)[C@H](NC(=O)[C@@H](NC(=O)OCc1ccccc1)C(C)C)C(=O)NC(C=O)Cc1c[nH]c2ccccc12 (stereo partly drawn) [Example 24] (Cbz-Val-Ile-[ξW]-aldehyde) | 1500 nM
CC[C@H](C)[C@H](NC(=O)[C@H](Cc1ccccc1)NC(=O)OCc1ccccc1)C(=O)N[C@H](C=O)Cc1c[nH]c2ccccc12 [Example 25, N-Benzyloxycarbonyl-S-phenylalanyl-S-isoleucyl-1-S-formyl-1-(1H-indol-3-yl-methyl)-methylamide] (Cbz-Phe-Ile-Trp-aldehyde) | 300 nM
CCC(C)C(NC(=O)C(CC(C)C)NC(=O)OCc1ccccc1)C(=O)NC(C=O)Cc1c[nH]c2ccccc12 (stereo not drawn) [Example 28] (Cbz-Leu-Ile-Trp-aldehyde; configuration not given here) | 200 nM
CC[C@H](C)[C@H](NC(=O)OCc1ccccc1)C(=O)N[C@H](C(=O)N[C@H](C=O)Cc1c[nH]c2ccccc12)C(C)C [Example 29, N-Benzyloxycarbonyl-S-isoleucyl-S-valyl-1-S-formyl-1-(1H-indol-3-yl-methyl)-methylamide] (Cbz-Ile-Val-Trp-aldehyde) | 200 nM
CC[C@H](C)[C@H](NC(=O)OCc1ccccc1)C(=O)N[C@H](C(=O)N[C@H](C=O)Cc1ccc(O)cc1)[C@@H](C)CC [Example 33, N-Benzyloxycarbonyl-S-isoleucyl-S-isoleucyl-1-S-formyl-1-(4-hydroxy-benzyl)-methylamide] (Cbz-Ile-Ile-Tyr-aldehyde) | 200 nM
O=C[C@H](Cc1c[nH]c2ccccc12)NC(=O)[C@H](Cc1ccc(OCc2ccccc2)cc1)NC(=O)[C@H](Cc1c[nH]c2ccccc12)NC(=O)OCc1ccccc1 [Example 36, N-Benzyloxycarbonyl-S-tryptophanyl-S-(O-benzyl)tyrosyl-1-S-formyl-1-(1H-indol-3-yl-methyl)-methylamide] (Cbz-Trp-Tyr(Bn)-Trp-aldehyde) | 30 nM
CC[C@H](C)[C@H](NC(=O)CCC(=O)O)C(=O)N[C@H](C(=O)N[C@H](C=O)Cc1c[nH]c2ccccc12)[C@@H](C)CC [Example 61] (Suc-Ile-Ile-Trp-aldehyde) | 800 nM

Next, values leading:

IC50 | SMILES
200 nM | CC[C@H](C)[C@H](NC(=O)OCc1ccccc1)C(=O)N[C@H](C(=O)N[C@H](C=O)Cc1c[nH]c2ccccc12)[C@@H](C)CC [Example 15, N-Benzyloxycarbonyl-S-isoleucyl-S-isoleucine 1-S-formyl-2-(1H-indol-3-yl]ethylamide] (Cbz-Ile-Ile-Trp-aldehyde)
400 nM | CC[C@H](C)[C@H](NC(=O)OCc1ccccc1)C(=O)N[C@H](C(=O)N[C@H](C=O)Cc1ccccc1)[C@@H](C)CC [Example 16, N-Benzyloxycarbonyl-S-isoleucyl-S-isoleucine 1-S-formyl-2-phenyl-ethylamide] (Cbz-Ile-Ile-Phe-aldehyde)
4400 nM | CC[C@H](C)[C@H](NC(=O)OCc1ccccc1)C(=O)N[C@H](C(=O)N[C@H](C=O)CC(C)C)[C@@H](C)CC [Example 17, N-Benzyloxycarbonyl-S-isoleucyl-S-isoleucine 1-S-formyl-3-methyl-butylamide] (Cbz-Ile-Ile-Leu-aldehyde)
600 nM | CC[C@H](C)[C@H](NC(=O)OCc1ccccc1)C(=O)N[C@H](C(=O)N[C@H](C=O)Cc1csc2ccccc12)[C@@H](C)CC [Example 18, N-Benzyloxycarbonyl-S-isoleucyl-S-isoleucine 1-S-formyl-2-(benzo-thien-3-yl)ethylamide] (Cbz-Ile-Ile-[Bta]-aldehyde)
1200 nM | CC[C@H](C)[C@@H](C=O)NC(=O)[C@H](Cc1ccccc1)NC(=O)[C@H](C)NC(=O)OCc1ccccc1 [Example 21, N-Bezyloxycarbonyl-S-alanyl-S-phenylalanyl-1-S-formyl-1-(2-S-butyl)-methylamide] (Cbz-Ala-Phe-Ile-aldehyde)
1500 nM | C[C@H](NC(=O)OCc1ccccc1)C(=O)N[C@@H](Cc1ccccc1)C(=O)N[C@H](C=O)Cc1c[nH]c2ccccc12 [Example 26, N-Benzyloxycarbonyl-S-alanyl-S-phenylalanyl-1-S-formyl-1-(1H-indol-3-yl-methyl)-methylamide] (Cbz-Ala-Phe-Trp-aldehyde)
500 nM | CCC(C)C(NC(=O)OCc1ccccc1)C(=O)NC(Cc1ccccc1)C(=O)NC(C=O)Cc1c[nH]c2ccccc12 (stereo not drawn) [Example 27, N-Benzyloxycarbonyl-S-isoleucyl-S-phenylalanyl-1-S-formyl-1-(1H-indol-3-yl-methyl)-methylamide] (Cbz-Ile-Phe-Trp-aldehyde; configuration not given here)
200 nM | CC[C@H](C)[C@H](NC(=O)OCc1ccccc1)C(=O)N[C@@H](Cc1c[nH]c2ccccc12)C(=O)N[C@H](C=O)Cc1c[nH]c2ccccc12 [Example 30, N-Benzyloxycarbonyl-S-isoleucyl-S-tryptophanyl-1-S-formyl-1-(1H-indol-3-yl-methyl)-methylamide] (Cbz-Ile-Trp-Trp-aldehyde)
100 nM | O=CC(Cc1c[nH]c2ccccc12)NC(=O)C(Cc1ccccc1)NC(=O)C(Cc1ccccc1)NC(=O)OCc1ccccc1 (stereo not drawn) [Example 32, N-Benzyloxycarbonyl-S-phenylalanyl-S-phenylalanyl-1-S-formyl-1-(1H-indol-3-yl-methyl)-methylamide] (Cbz-Phe-Phe-Trp-aldehyde; configuration not given here)
8 nM | O=CC(Cc1c[nH]c2ccccc12)NC(=O)[C@H](Cc1cccc2ccccc12)NC(=O)[C@H](Cc1c[nH]c2ccccc12)NC(=O)OCc1ccccc1 (stereo partly drawn) [Example 34, N-Benzyloxycarbonyl-S-tryptophanyl-S-1'naphthylalanyl-1-S-formyl-1-(1H-indol-3-yl-methyl)-methylamide] (Cbz-Trp-[1Nal]-[ξW]-aldehyde)
15 nM | O=C[C@H](Cc1ccc(Cl)cc1)NC(=O)[C@H](Cc1ccc(OCc2ccccc2)cc1)NC(=O)[C@H](Cc1cccc2ccccc12)NC(=O)OCc1ccccc1 [Example 39, N-Benzyloxycarbonyl-S-1'naphthylalanyl-S-(O-benzyl)tyrosyl-1-S-formyl-1-(4-chlorophenylmethyl)-methyloamide] (Cbz-[1Nal]-Tyr(Bn)-[Phe(4-Cl)]-aldehyde)
10000 nM | C#CC(=O)C(Cc1c[nH]c2ccccc12)NC(=O)[C@@H](NC(=O)[C@@H](NC(=O)OCc1ccccc1)[C@@H](C)CC)[C@@H](C)CC (stereo partly drawn) [Example 49, N-Benzyloxycarbonyl-L-isoleucyl-L-isoleucine-L_N-[1[2-propynoyl]2-(1H-indol-3-yl)ethyl]amide]
10000 nM | CC[C@H](C)[C@H](NC(=O)OCc1ccccc1)C(=O)N[C@H](C(=O)NC(C=NNC(N)=O)Cc1c[nH]c2ccccc12)[C@@H](C)CC (stereo partly drawn) [Example 56, N-Benzyloxycarbonyl-L-isoleucyl-L-isoleucine-L-N-[1[semicarbazonomethyl]2-(1H-indol-3-yl)ethyl]amide]
100 nM | CC[C@H](C)[C@H](NC(=O)CC(c1ccccc1)c1ccccc1)C(=O)N[C@H](C(=O)NC(C=O)Cc1c[nH]c2ccccc12)[C@@H](C)CC (stereo partly drawn) [Example 58]
1000 nM | CC[C@H](C)[C@H](NC(C)=O)C(=O)N[C@H](C(=O)NC(C=O)Cc1c[nH]c2ccccc12)[C@@H](C)CC (stereo partly drawn) [Example 60] (Ac-Ile-Ile-[ξW]-aldehyde)
